{"source": "patent US8604085B2", "about": "“Bupropion hydrobromide polymorphs” (Valeant International Bermuda, priority 2008, dated 2013)", "type_in_all_cases": "physicochemical", "key": {"[1]": {"test": "Slurry experiments at room temperature (thermodynamic stability of crystal forms, X-ray diffraction)", "conditions": "for Slurry Result: 7 days, room temperature, form by XRD", "procedure": "Slurry experiments of Form I were performed at room temperature to verify if Form I is the thermodynamic crystal form. 0.050 g of Form I was suspended in 2 ml of solvent and stirred for 1 week. The sample was filtered and analyzed by X-ray diffraction. In the large majority of the experiments, Form I converts into Form II. […] By 1,4-Dioxane, a new crystal form was obtained named Form V. See Table 46 for the Form I slurries results (7 days).\nFurther slurry experiments of Form I were performed at room temperature using 0.5 g of powder in 10 mL of solvent to confirm the results obtained even in large scale.\n0.050 g of Form I were suspended in 2 ml of solvent and stirred at room temperature for 4 weeks (30 days). The sample was filtered and analyzed by X-ray diffraction. By 1,4-Dioxane, Form V was obtained. By tetrahydrofuran, Form II and Form VII were obtained. […] See Table 47 for the Form I slurries results (30 days).\n(§1) Slurry experiments of mixtures of Form I and Form II were performed at room temperature to verify their thermodynamic stability. 0.040 g of Form I+0.040 g of Form II were suspended in 4 ml of solvent and stirred for 1 week (7 days). The samples were filtered and analyzed by X-ray diffraction. By 1,4-Dioxane, Form V was obtained. […] See Table 48 for the Form I+Form II slurries results (7 days).\nas §1, with “II” for “I”, “III” for “II”, “II+0.040” for “I+0.040”, “49” for “48”, “II+Form III” for “I+Form II”\nas §1, with “II” for “I”, “IV” for “II”, “II+0.040” for “I+0.040”, “50” for “48”, “II+Form IV” for “I+Form II”\nas §1, with “II” for “I”, “V” for “II”, “II+0.040” for “I+0.040”, “51” for “48”, “II+Form V” for “I+Form II”\nas §1, with “II” for “I”, “VI” for “II”, “II+0.040” for “I+0.040”, “52” for “48”, “II+Form VI” for “I+Form II”\nas §1, with “II” for “I”, “VII” for “II”, “II+0.040” for “I+0.040”, “53” for “48”, “II+Form VII” for “I+Form II”"}, "[2]": {"test": "Stability tests on bupropion hydrobromide polymorphs in humidity chamber (XRD pattern)", "conditions": "40° C., 85% R.H., open sample-holder", "procedure": "Stability tests were performed on bupropion hydrobromide Form I, Form II, Form III, Form IV, Form V and Form VI. The powders were stored in a controlled atmosphere (85% R.H.) at 40° C. Form I and Form II were stored for 7 and 30 days respectively, while the other forms were stored only for 30 days. The sample was positioned on the sample-holder which was introduced, without any cover, into the humidity chamber at 40° C. The layer of the sample on the sample-holder was about 0.5 cm.\nIn addition, stability tests were performed on bupropion hydrobromide Form VII."}, "[3]": {"test": "TGA and DSC characterization", "conditions": "for TGA (mass change): successive mass-loss steps listed per polymorph; for DSC (onset ° C.): successive thermal events listed per polymorph", "procedure": "The PXRD diffraction patterns were obtained on X-ray powder diffraction PANalytical X′pert Pro equipped with X′Celerator, in a measurement range between 3 and 40 2 theta. All the DSC experiments were performed with a DSC 7 Perkin Elmer instrument in a temperature range between 25° C. and 250° C. with a heating rate of 10° C./min.\nAll the TGA experiments were conducted with a TGA 7 Perkin Elmer instrument in a temperature range between 39° C. and 310° C. with a heating rate of 10° C./min.\nPXRD, DSC, TGA and IR analyses were obtained for Bupropion Hydrobromide Polymorph Form I, Form II, Form III, Form IV, Form V, Form VI, and Form VII. PXRD analyses were obtained for the amorphous form. With respect to the PXRD analyses, the Peak List is shown for Form I, Form II, Form III, Form IV, Form V, Form VI, Form VII and the amorphous form in Table 56, Table 57, Table 58, Table 59, Table 60, Table 61, Table 62 and Table 63 respectively."}, "[4]": {"test": "Slurries in 2-propanol at room temperature, 50° C. and 80° C.", "conditions": "form by XRD", "procedure": "0.050 g of Form I were suspended in 4 ml of solvent and stirred at room temperature. for 1 week (7 days). The sample was filtered and analyzed by X-ray diffraction.\n0.040 g of Form I+0.040 g of Form II were suspended in 4 ml of solvent and stirred at room temperature for 1 week (7 days). The sample was filtered and analyzed by X-ray diffraction experiments.\n0.050 g of Form II were suspended in 4 ml of solvent and stirred at room temperature for 1 week (7 days). The sample was filtered and analyzed by X-ray diffraction experiments.\n0.050 g of Form I were suspended in 4 ml of solvent and stirred at 50° C. for 1 Week (7 days). The sample was filtered and analyzed by X-ray diffraction experiments.\n0.040 g of Form I+0.040 g of Form II were suspended in 4 ml of solvent and stirred at 50° C. for 1 week (7 days). The sample was filtered and analyzed by X-ray diffraction experiments.\nForm I+Form II were suspended in solvent and stirred at 80° C. for 14 hours. The sample was filtered and analyzed by X-ray diffraction experiments. […] Slurry in 2-propanol at 80° C. is an atypical experiment because if we consider the boiling point of the solvent, it could be defined as a combination between a slurry and precipitation experiment. Form I was obtained during the precipitation from supersaturated solution by 2-propanol. However the high temperature and the reflux produce the energetic conditions needed by the stable crystal form (Form II) to convert to the metastable crystal form (Form I)."}, "[5]": {"test": "Stability tests on bupropion hydrobromide polymorphs in humidity chamber (XRD pattern)", "conditions": "28 days; 25° C.; 75% R.H."}, "[6]": {"test": "Release of bupropion base from the salt", "conditions": "150 mg of the salt tested", "procedure": "It was previously observed that when 150 mg of bupropion HCl was tested for its release of bupropion, the base value that was released was 130 mg. However, when 150 mg of bupropion HBr was tested, the base value released was only 112 mg. Thus, the amount of bupropion HBr had to be increased in order to increase the base value from 112 mg to 130 mg, which was the target."}, "[7]": {"conditions": "room temperature, 1 week (7 days)"}}, "note": "Entries after “also recorded” stand apart in the source; their conditions may differ. Structures can show the parent of a compound that is named as a salt."}
{"smiles": "Br.CC(NC(C)(C)C)C(=O)c1cccc(Cl)c1", "note": "(single isomer, unassigned) [Form II]", "values": [{"measurement": "Thermodynamic stability of the crystal form as shown by slurry experiments", "setting": "[1]", "value": "thermodynamically stable crystal form; also recorded: thermodynamic stable form"}, {"measurement": "XRD pattern / crystal form after storage", "setting": "[2]; 7 days", "value": "did not show modification"}, {"measurement": "XRD pattern / crystal form after storage", "setting": "[2]; 30 days", "value": "did not show modification"}, {"measurement": "TGA (mass change)", "setting": "[3]", "value": "−93.35", "unit": "%"}, {"measurement": "Slurry result in 2-propanol", "setting": "[4]; mixture Form I+Form II, 80° C., 14 hours", "value": "converted to Form I"}, {"measurement": "Slurry result in 2-propanol", "setting": "[4]; [7]", "value": "Form II was obtained"}]}
{"smiles": "Br.CC(NC(C)(C)C)C(=O)c1cccc(Cl)c1", "note": "(single isomer, unassigned) [Form VI]", "values": [{"measurement": "XRD pattern / crystal form after storage", "setting": "[2]; 30 days", "value": "converted into a mixture of Form I+Form II"}, {"measurement": "TGA (mass change)", "setting": "[3]", "value": "−97.68", "unit": "%"}, {"measurement": "DSC (onset ° C.)", "setting": "[3]", "value": 235, "unit": "°C"}]}
{"smiles": "Br.CC(NC(C)(C)C)C(=O)c1cccc(Cl)c1", "note": "(centres unmarked) [Form I + Form II]", "values": [{"measurement": "Slurry Result", "setting": "[1]; 1,2-Dimethoxy Ethane", "value": "Form II"}, {"measurement": "Slurry Result", "setting": "[1]; 1,4-Dioxane", "value": "Form V"}, {"measurement": "Slurry Result", "setting": "[1]; Acetone", "value": "Form II"}, {"measurement": "Slurry Result", "setting": "[1]; Diethyl ether", "value": "Form II"}, {"measurement": "Slurry Result", "setting": "[1]; Ethyl acetate", "value": "Form II"}, {"measurement": "Slurry Result", "setting": "[1]; n-Hexan", "value": "Form II"}, {"measurement": "Slurry Result", "setting": "[1]; p-Xylene", "value": "Form II"}, {"measurement": "Slurry result in 2-propanol", "setting": "[4]; 50° C., 1 week (7 days)", "value": "Form II was obtained"}, {"measurement": "Slurry result in 2-propanol", "setting": "[4]; [7]", "value": "Form II was obtained"}]}
{"smiles": "Br.CC(NC(C)(C)C)C(=O)c1cccc(Cl)c1", "note": "(centres unmarked) [Form II + Form III]", "values": [{"measurement": "Slurry Result", "setting": "[1]; 1,2-Dimethoxy Ethane", "value": "Form II"}, {"measurement": "Slurry Result", "setting": "[1]; 1,4-Dioxane", "value": "Form V"}, {"measurement": "Slurry Result", "setting": "[1]; Acetone", "value": "Form II"}, {"measurement": "Slurry Result", "setting": "[1]; Diethyl ether", "value": "Form II"}, {"measurement": "Slurry Result", "setting": "[1]; Ethyl acetate", "value": "Form II"}, {"measurement": "Slurry Result", "setting": "[1]; n-Hexan", "value": "Form II"}, {"measurement": "Slurry Result", "setting": "[1]; p-Xylene", "value": "Form II"}]}
{"smiles": "Br.CC(NC(C)(C)C)C(=O)c1cccc(Cl)c1", "note": "(centres unmarked) [Form III]", "values": [{"measurement": "XRD pattern / crystal form after storage", "setting": "[2]; 30 days", "value": "converted into Form I"}]}
{"smiles": "Br.CC(NC(C)(C)C)C(=O)c1cccc(Cl)c1", "note": "(centres unmarked) [Form IV]", "values": [{"measurement": "XRD pattern / crystal form after storage", "setting": "[2]; 30 days", "value": "converted into Form I"}]}
{"smiles": "Br.CC(NC(C)(C)C)C(=O)c1cccc(Cl)c1", "note": "(centres unmarked) [Form VII]", "values": [{"measurement": "DSC (onset ° C.)", "setting": "[3]", "value": 268.7, "unit": "°C"}, {"measurement": "XRD pattern / crystal form after storage", "setting": "[5]", "value": "stable form"}]}
{"smiles": "Br.CC(NC(C)(C)C)C(=O)c1cccc(Cl)c1", "note": "(centres unmarked) [Form V]", "values": [{"measurement": "XRD pattern / crystal form after storage", "setting": "[2]; 30 days", "value": "converted into Form I"}, {"measurement": "DSC (onset ° C.)", "setting": "[3]", "value": 237.85, "unit": "°C"}]}
{"smiles": "CC(NC(C)(C)C)C(=O)c1cccc(Cl)c1", "note": "(centres unmarked) [bupropion HCl, reference compound]", "values": [{"measurement": "base value that was released", "setting": "[6]", "value": 130, "unit": "mg"}]}
